The record followed here is patent US20090326072A1, “USE OF 2-(2-NITRO-4-TRIFLUOROMETHYLBENZOYL)-l,3- CYCLOHEXANEDIONE IN THE TREATMENT OF PARKINSON'S DISEASE” (priority 2005, published 2009).

The structures appear in SMILES notation. “Also recorded” adds a separate entry of the source. Like-named read-outs stand apart in the source and are kept apart here.

For one test, the system named is plasma tyrosine. Description: Plasma tyrosine concentration kinetic profile in the rat following a single oral dose. The class given is in vivo. The settings on record: for Plasma Tyrosine Concentration: single oral dose 10 mg/kg; for Plasma tyrosine: single oral dose 2.0 mg/kg. The protocol: The plasma tyrosine concentration kinetic profile in the rat was determined for each of the HPPD inhibitor test compounds by administering a single oral dose to 10-12 week old male Sprague Dawley rats. Compounds 3.20, 3.13 and 3.26 were dosed at 2 mg/kg in 1% carboxymethylcellulose (1% CMC) vehicle, whilst compounds 3.22, 3.12, 3.15, 3.18, 3.23, 3.21, 3.11, 3.01, 3.24 and 3.25 were administered at 10 mg/kg in 1% CMC.
Blood samples to determine plasma tyrosine concentration were obtained at frequent intervals during the first 24 hours post-dose, and at 48 hours post-dose. These samples were either compared with blood samples obtained from control rats which only received an equivalent volume of the vehicle, 1% CMC, or by comparison with control samples obtained from the rats 1 hour prior to dosing with test the compound. Prior to the analysis of the samples for plasma tyrosine concentration, the blood samples were centrifuged at 1800 g for 10 minutes at 4° C. The plasma was collected and then filtered through a centrifugal micro partition device at 1500 g for 30 minutes at 4° C. The filtered plasma was then divided into two aliquots and stored frozen at −70° C. for subsequent gradient reverse phase high performance liquid chromatographic (HPLC) analysis of plasma tyrosine. Aliquots of plasma were analysed by HPLC using a 250×4.6 mm Hichrom S5ODS2 column at 30° C., eluted with a mobile phase of water/acetonitrile/trifluoroacetic acid (950:50:2 v/v/v) at a flow rate of 1 ml/min. Detection was by a diode array detector at 274 nm. Appropriate tyrosine standards were run alongside the samples for calibration purposes.
The plasma tyrosine concentration kinetic profile for the test compounds 3.20, 3.13 and 3.26 are shown at the time points 1, 2, 4, 6, 12, 24 and 48 hours post-dose in Table 1.1. The data shown are the mean±standard deviation (n=4), except for the 6 hour time point where the data were obtained from n=3 rats for the control and 3.26 groups.
The plasma tyrosine concentration kinetic profile for the test compounds 3.22, 3.12, 3.15, 3.18, 3.23, 3.21, 3.11, 3.01, 3.24 and 3.25 are shown at the time points −1 hour (pre-dose control), 1, 3, 6, 12, 24 and 48 hours post-dose, in Tables 1.2 and 1.3. The data shown are the mean±standard deviation (n=3), except for the −1 hour time point with compound 3.23, where n=2 (Table 1.2), and for the 3 and 6 hour time points with compound 3.21, where n=2 (Table 1.3).

The target of test [1] is T1, 4-hydroxyphenyl pyruvate dioxygenase (HPPD) (Rattus norvegicus, UniProt P32755).
T1 construct: rat liver cytosol (2.7 mg of protein/ml incubate); from tissue; host or cells: rat liver (cytosol, 110,000 g supernatant)
Put plainly: Determination of 4-hydroxyphenyl pyruvate dioxygenase (HPPD) enzyme activity in vitro (rate of oxygen consumption, rat liver cytosol). The class given is biochemical. To be noted: for inhibition at 0.1 µM: read-out: % Inhibition at 100 nM; for inhibition at 0.3 µM: read-out: % inhibition at 300 nM. The procedure: The principle of the assay is that 4-hydroxyphenyl pyruvate dioxygenase (HPPD), an enzyme that participates in the catabolism of tyrosine, catalyses the oxidative decarboxylation and rearrangement of 4-hydroxyphenylpyruvate (HPPA) to homogentisate, with the incorporation of both atoms of molecular oxygen into the product.
Rat liver was homogenised in buffer of the following composition; 0.25 M Sucrose, 5.4 mM EDTA, 20 mM Tris base, pH 7.4, (25% homogenate) using 6 passes of a Potter type homogeniser. The homogenate was then centrifuged at 1,800 g for 10 minutes at 4° C., the pellet was discarded and the supernatant centrifuged at 17,000 g for a further 15 minutes at 4° C. The pellet was then discarded and the supernatant centrifuged at 110,000 g for 80 minutes at 4° C. The supernatant containing the HPPD enzyme from this 110,000 g spin was collected and stored frozen at −70° C. and used in the assays of the test compounds (see below).
Prior to the start of the enzymatic reaction by the addition of HPPA substrate, the enzyme and test compound (inhibitor) were incubated together for 3 minutes.
In cases where the effects of several concentrations of an inhibitor were investigated, an IC50 value (the half-maximal inhibitory concentration of test compound) was determined by plotting the data using a non-linear regression curve-fitting program using a GraphPad Prism™ software package.
Data are expressed as mean values from two experiments except where indicated. Where appropriate the values are expressed as the mean±standard deviation.

Test [2] relates to AMPT rat model of Parkinson's disease. Description: AMPT rat model of Parkinson's disease (catalepsy descent latency and centre rearing counts). It counts as in vivo. The procedure: AMPT is a competitive inhibitor of tyrosine hydroxylase. Rats dosed with >150 mg/kg AMPT develop parkinsonian-like behavior and locomotor deficits (e.g. catalepsy and reduced rearing activity) within hours owing to the depletion of striatal dopamine concentration as a consequence of the reduced flux through the dopamine synthetic pathway. […] Indian J. Exp. Biol. 41, 1264-1268).
The effect was compared with appropriate vehicle control groups (oral vehicle was 1% carboxymethylcellulose; CMC) and a group that received a 150 mg/kg i.p. dose of L-dopa.
Eight hours after AMPT (or vehicle) administration rats were assessed for catalepsy and centre rearing activity. During the catalepsy test, the front paws of the rat were placed over a horizontal bar suspended 9 cm off the floor. The time taken for the rat to get off the bar (descent latency) was measured with a maximum time of 3 minutes being allowed. Centre rearing counts were determined over a 1 hour monitoring period using an automated activity monitoring system (AM1053). This system used an array of infrared beams to determine the activity and mobility of each animal. Each cage had 48 infrared beams, 24 on each of two levels arranged in an 8×16, 1″ (25.4 mm) pitch grid. The lower grid measured horizontal x, y movement, whilst the upper grid measured rearing movement. The activity detector operated by counting the number of times the beams changed from unbroken to broken and then incrementing the relevant counters.
These groups were compared to a positive control group (6) dosed with 225 mg/kg AMPT i.p.+150 mg/kg L-dopa i.p. 6.5 hour post AMPT dose. L-dopa was administered with a peripheral dopa decarboxylase inhibitor (benserazide), at 100 mg/kg i.p.
In a second and third series of experiments, the efficacy of eight other HPPD inhibitor test compounds were assessed in the AMPT rat model of Parkinson's disease (Tables 1.5 & 1.6). Male Sprague-Dawley rats (300-350 g) were administered a single i.p. dose of 225 mg/kg AMPT and a single oral dose of 10 mg/kg of the HPPD inhibitor test compound was administered either 1 or 16 hours prior to (−16 or −1 hours) AMPT administration. Behavioral assessment (catalepsy and centre rearing counts) was conducted 8 hours post AMPT administration. The effect was compared with a vehicle control group and a group receiving AMPT alone.

Where [3] appears, read: 100 nM test compound, rat liver cytosol, 3 min pre-incubation.
[4] abbreviates: 300 nM test compound, rat liver cytosol, 3 min pre-incubation.
[5] abbreviates: 225 mg/kg AMPT i.p. + 2 mg/kg oral 4 hours post AMPT (+4 hours), 8 h post AMPT.
[6] abbreviates: 225 mg/kg AMPT i.p. + 2 mg/kg oral 16 hours prior to AMPT (-16 hours), 8 h post AMPT.
Setting [7] is: 225 mg/kg AMPT i.p. + 150 mg/kg i.p. at +6.5 hours, with benserazide 100 mg/kg i.p., 8 h post AMPT.

T1 sequence (P32755 whole entry): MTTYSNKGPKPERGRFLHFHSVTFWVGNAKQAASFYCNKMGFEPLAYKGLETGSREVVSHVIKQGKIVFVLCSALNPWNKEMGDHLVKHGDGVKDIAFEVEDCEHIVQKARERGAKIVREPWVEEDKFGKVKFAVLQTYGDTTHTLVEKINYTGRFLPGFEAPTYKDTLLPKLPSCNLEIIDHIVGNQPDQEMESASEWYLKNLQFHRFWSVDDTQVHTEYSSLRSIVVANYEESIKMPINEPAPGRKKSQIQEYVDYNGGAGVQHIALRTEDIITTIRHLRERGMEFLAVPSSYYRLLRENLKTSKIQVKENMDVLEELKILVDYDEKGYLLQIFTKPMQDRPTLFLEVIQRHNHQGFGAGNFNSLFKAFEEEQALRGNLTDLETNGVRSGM

In general, inhibition refers to the percentage by which the read-out fell short of the control. `CS(=O)(=O)c1cc(Cl)ccc1C(=O)c1cnoc1C1CC1` [Compound 3.25]: the “Plasma Tyrosine Concentration” value with plasma tyrosine (1 hour post-dose) amounted to 162 ± 17.7 nmol/mL; in the test with plasma tyrosine (3 hours post-dose), 267 ± 19.4 nmol/mL; with plasma tyrosine (6 hours post-dose), 370 ± 60.8 nmol/mL; in the test with plasma tyrosine (12 hours post-dose) it was 415 ± 152.8 nmol/mL; in the test on plasma tyrosine (24 hours post-dose), 136 ± 31.2 nmol/mL; in the test on plasma tyrosine (48 hours post-dose), 100 ± 13.5 nmol/mL. Moreover, the inhibition at 0.1 µM in test [1] (setting [3]) came to 5%. In test [1] (setting [4]), the inhibition at 0.3 µM is 22%.
`O=C1CCCC(O)=C1C(=O)c1ccc(C(F)(F)F)cc1[N+](=O)[O-]` [Compound 2, 2-(2-Nitro-4-Trifluoromethylbenzoyl)-1,3-Cyclohexanedione]: the “Mean Catalepsy Descent Latency (s)” value in test [2] (setting [5]) is recorded as 27 ± 6.7^++ s; in test [2] (setting [6]), 27 ± 5.4^++ s. The “Mean Centre Rearing Counts” value in test [2] (setting [5]) was 298 ± 57^++ counts; in test [2] (setting [6]) it was 364 ± 74^++ counts; in test [2] (AMPT vehicle (saline i.p., no AMPT) + 2 mg/kg oral at +4 hours, assessed 8 h, 1 hour monitoring), 485 ± 108 counts. Also, in test [2] (AMPT vehicle (saline i.p., no AMPT) + 2 mg/kg oral at +4 hours, assessed 8 h), the “Mean Catalepsy Descent Latency” value is reported as 12 ± 4.3 s. The “reversal of AMPT induced deficits in centre rearing counts (in words)” value in test [2] (single oral dose 2 mg/kg, 2 mg/kg) is recorded as “reversed; also recorded: effective in reversing”. For the same compound, the “reversal of AMPT induced catalepsy (in words)” value in test [2] (single oral dose 2 mg/kg, both dosing regimens, 2 mg/kg) is listed as “substantially reversed; also recorded: effective in reversing”.
Regarding `CCOc1c(S(C)(=O)=O)ccc(C(=O)C2C(=O)CC(C)CC2=O)c1Cl` (stereo not shown) [Compound 3.22], the “Plasma Tyrosine Concentration” value with plasma tyrosine (1 hour post-dose) was 179 ± 18.5 nmol/mL; in the test with plasma tyrosine (3 hours post-dose) it was 319 ± 43.5 nmol/mL; in the test with plasma tyrosine (6 hours post-dose), 507 ± 86.4 nmol/mL; in the test on plasma tyrosine (12 hours post-dose), 1011 ± 134.8 nmol/mL; in the test with plasma tyrosine (24 hours post-dose), 2067 ± 36.6 nmol/mL; in the test on plasma tyrosine (48 hours post-dose), 2377 ± 518.5 nmol/mL. In test [1] (setting [3]), the inhibition at 0.1 µM worked out at 44%.
Regarding `Cc1nc(C(F)F)ccc1C(=O)C1C(=O)C2CCC(C2)C1=O` (stereo not shown) [Compound 3.26], the “Plasma tyrosine” value in the test on plasma tyrosine (1 hour post-dose) came to 173 ± 9.6 nmol/mL; in the test with plasma tyrosine (2 hours post-dose), 241 ± 24.0 nmol/mL; with plasma tyrosine (4 hours post-dose) it was 337 ± 53.5 nmol/mL; in the test with plasma tyrosine (6 hours post-dose) it was 504 ± 72.7 nmol/mL; in the test with plasma tyrosine (12 hours post-dose) it was 897 ± 140.8 nmol/mL; with plasma tyrosine (24 hours post-dose), 1987 ± 50.0 nmol/mL. The “Plasma tyrosine” value in the test with plasma tyrosine (48 hours post-dose) is 2449 ± 156.8 nmol/mL. For the same compound, in test [1] (setting [3]), the inhibition at 0.1 µM amounted to 20 ± 6.1%. For the same compound, the inhibition at 0.3 µM in test [1] (setting [4]) came to 43%.
As to `N[C@@H](Cc1ccc(O)c(O)c1)C(=O)O` [L-dopa, L-3,4-dihydroxyphenylalanine, reference compound], in test [2] (setting [7]), the “Mean Catalepsy Descent Latency (s)” value is listed as 25 ± 6.9^++ s and the “Mean Centre Rearing Counts” value is 258 ± 71^+ counts.
`CC1=NN(C)C(=O)C1C(=O)c1ccc(C(F)(F)F)cc1S(C)(=O)=O` (stereo not shown) [Compound 3.21]: the “Plasma Tyrosine Concentration” value with plasma tyrosine (1 hour post-dose) stood at 177 ± 17.8 nmol/mL; in the test with plasma tyrosine (3 hours post-dose), 300 nmol/mL; in the test with plasma tyrosine (6 hours post-dose), 472 nmol/mL; with plasma tyrosine (12 hours post-dose) it was 555 ± 39.0 nmol/mL; with plasma tyrosine (24 hours post-dose), 181 ± 23.6 nmol/mL; in the test on plasma tyrosine (48 hours post-dose) it was 100 ± 6.4 nmol/mL. Besides, the inhibition at 0.1 µM in test [1] was 10%. For the same compound, in test [1], the inhibition at 0.3 µM was 43%.
What is called IC50 is the concentration that gives 50% inhibition. Higher therefore signals weaker potency in that assay. For the compound `COCCOCc1nc(C(F)(F)F)ccc1C(=O)C1=C(O)C2CCC(C2)C1=O` (stereo not shown) [Compound 3.13], the “Plasma tyrosine” value in the test with plasma tyrosine (1 hour post-dose) was determined as 158 ± 6.4 nmol/mL; with plasma tyrosine (2 hours post-dose), 209 ± 14.8 nmol/mL; with plasma tyrosine (4 hours post-dose), 324 ± 50.2 nmol/mL; in the test on plasma tyrosine (6 hours post-dose), 461 ± 52.2 nmol/mL; in the test with plasma tyrosine (12 hours post-dose), 801 ± 24.8 nmol/mL; in the test with plasma tyrosine (24 hours post-dose) it was 1281 ± 90.0 nmol/mL. For the same compound, in the test on plasma tyrosine (48 hours post-dose), the “Plasma tyrosine” value was determined as 115 ± 3.0 nmol/mL. This compound also came in with an IC50 in test [1] (rat liver cytosol HPPD) of 350 nM. For the same compound, in test [1], the inhibition at 0.1 µM was determined as 14%. Further, the inhibition at 0.3 µM in test [1] stood at 41%.
